Values of other authors, collected in patent US10238670B2, “9-aminomethyl minocycline compounds and methods of use thereof in urinary tract infection (UTI) treatment” (Paratek Pharmaceuticals, Inc., priority 2016, dated 2019).
Read-outs that look alike come from different tables or passages of the source.

Experiments:
[1] = IV to oral transition therapy; cUTI; cited from earlier work
[2] = IV; cIAI; cited from earlier work
human plasma protein = settings: cited from earlier work

Q: With `CN(C)[C@@H]1C(O)=C(C(N)=O)C(=O)[C@@]2(O)C(O)=C3C(=O)c4c(O)c(NC(=O)CN5CCCC5)cc(F)c4C[C@H]3C[C@@H]12` [eravacycline] as the molecule, how does the “primary endpoint, non-inferiority compared to levofloxacin” value [1] read?
A: Its value is “failed to achieve its primary endpoint of statistical non-inferiority”.

Q: What about the primary endpoint [2] of the same molecule?
A: The primary endpoint was “did meet its primary endpoint”.

Q: And the “human plasma protein binding” value (human plasma protein; Concentration 100 ng/mL, literature)?
A: Its value is 79.3%.

Q: What about the “human plasma protein binding” value (human plasma protein; Concentration 1,000 ng/mL, literature) of the same molecule?
A: Its value is 87.0%.

Q: What about the “human plasma protein binding” value (human plasma protein; Concentration 10,000 ng/mL, literature) of the same molecule?
A: The value was 89.3%.

Q: And the “human plasma protein binding” value (human plasma protein; Concentration 100,000 ng/mL, literature)?
A: The value was 97.0%.

Q: What about the “type of plasma protein binding” value (human plasma protein; binding increases with increasing drug concentrations) of the same molecule?
A: Its value is “atypical, non-linear protein binding”.

Q: What about the “human plasma protein binding, Mean” value (human plasma protein; literature) of the same molecule?
A: Its value is 79-97%.

Q: With `CC(=O)NC[C@H]1CN(c2ccc(N3CCOCC3)c(F)c2)C(=O)O1` [Linezolid] as the molecule, how does the “protein bound in human plasma” value (human plasma protein; human, plasma) read?
A: The value was 31%.

Q: Which “human plasma protein binding, Mean” value (human plasma protein; human, plasma) does the source give for `CN(C)c1ccc(O)c2c1C[C@H]1C[C@H]3[C@H](N(C)C)C(O)=C(C(N)=O)C(=O)[C@@]3(O)C(O)=C1C2=O` [Minocycline] here?
A: The value was 76%.
